{"source": "patent EP4620956A1", "about": "“PARP1 INHIBITORS” (Zhejiang Yangli Pharmaceutical Technology Co., Ltd., priority 2022, dated 2024)", "key": {"A549 WT": {"system": "A549 WT", "assay": "Cellular PARylation inhibition, high-content imaging, A549 WT", "type": "cell-based", "conditions": "Homo sapiens, PARylation at the cellular level", "method": "The inhibitory effect of the compounds on PARP1/PARP2 enzyme activity at the cellular level was detected using high-content imaging. A549 WT, PARP1-KO and PARP2-KO cell lines were established in-house, and the cells were revived. After the cells were stable, a sufficient number of cells were collected and 100 µL of the cell suspension was seeded into a 96-well plate. The next day, the example compounds with serially diluted concentrations were added. […] The plate was incubated for 1.5 hours (A549 WT and PARP2-KO cell lines) or 2 hours (PARP1-KO cell line). After removing the supernatant, 0.4 mM H2O2 was added and incubation was carried out for 10 minutes (A549 WT and PARP2-KO cell lines) or 1.5 mM H2O2 was added and incubation was carried out for 15 minutes (PARP1-KO cell line) to induce extensive cellular DNA damage. After removing the supernatant, the cells were fixed with 4% paraformaldehyde for 20 minutes, followed by treatment with 0.5% Triton X-100 for 20 minutes to increase the permeability of the cell membrane. After that, the cells were incubated with 3% BSA for 1 hour to prevent non-specific binding. […] The cell nuclei were stained for 30 minutes by adding 50 µL DAPI (invitrogen, R37606). After washing twice with PBS, images were acquired on OPERETTA CLS™ (PE) by scanning the cells under a 20x water objective lens in non-confocal mode, with 5 fields of view captured per well. […] The inhibition rate was calculated using the fluorescence values from the Max and Min wells, and the dose-response curve was fitted using the analysis software GraphPad Prism 5 to obtain the IC50 value of each compound for the enzyme activity."}, "cleaved caspase-3": {"system": "cleaved caspase-3", "assay": "Cleaved caspase-3 in MDA-MB-436 xenograft tumour tissues (immunoblotting)", "type": "in vivo, mice", "conditions": "10 days of treatment, 0.25 hours and 24 hours after the last administration, FIG. 5 and 6", "method": "The pro-apoptotic effect of the compounds was further verified in vivo. The changes of cleaved caspase-3 in subcutaneous xenograft tumour tissues of MDA-MB-436 mice were detected by immunoblotting. After 10 days of treatment with different compounds, the animals were euthanized 0.25 hours and 24 hours after the last administration, and the tumour tissues were obtained for analysis. The rapidly frozen tumour tissues were placed on dry ice, 350 µL of complete cell lysis buffer (containing 1% protease inhibitors and phosphatase inhibitors) was added, the tissues were disrupted using Tissue grinder for 5 minutes, and the tissue lysate was placed on ice for 30 minutes. Centrifugation was performed at 12,000 rpm and 4°C for 10 minutes, the supernatant was placed in a new 1.5 mL centrifuge tube, and protein quantification was carried out using a BCA quantification kit. According to the quantitative results, the sample protein concentration was uniformly adjusted to 2 µg/µL, LDS loading buffer (4X) and sample reducing agent (10X) were added, and the samples were heated at a constant temperature of 100°C for 10 minutes. For Western blotting, 10 µL of sample was loaded into each well of an SDS-PAGE gel, and electrophoresis was performed at 80 V for 30 minutes, followed by 120 V for 90 minutes. […] The membrane was then cut according to the molecular weights of the proteins to be detected. […]"}}}
{"smiles": "[2H]C([2H])([2H])NC(=O)c1ccc(N2CCN(Cc3cnc4c(N)c(CC)c(=O)[nH]c4c3)CC2)c(F)n1", "note": "[Example 4, 5-(4-((8-Amino-7-ethyl-6-oxo-5,6-dihydro-1,5-naphthyridin-3-yl)methyl)piperazin-1-yl)-6-fluoro-N-(methyl-d3)picolinamide]", "values": [{"measurement": "IC50", "setting": "A549 WT", "result": 5.2, "unit": "nM"}, {"measurement": "cleaved caspase-3 in tumour tissues", "setting": "cleaved caspase-3", "result": "induced an increase in cleaved caspase-3"}]}
